# Assay results as given in PubChem BioAssay (NCI).
# Several values for one entry are separate records, joined by “and”; a condition that tells them apart may be missing. Identical values can stand only once.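 Following 48 hours of exposure in 96-well plates, responses at five concentrations were used to interpolate endpoints linearly. GI50 = concentration required for 50% inhibition of growth. Definition used: TGI = concentration required for complete inhibition of growth.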
# Tested on: OVCAR-4 ovarian
# Assay: NCI anticancer screen, dose series, 48 h
SMILES,GI50,TGI
CCCCCCCCCCSC(=N)N (tested in a mixture with another compound),3.44 µM,16 µM
CCOc1ccc(NC2=CC(=O)C(=O)c3ccccc32)cc1,–,7.8 µM
COc1cc2c(cc1OC)-c1cc(OC)c(OC)cc1C(CN(C)C)C2 (stereo not drawn),> 10 µM,> 10 µM
O=C1c2ccccc2C(=O)c2c(/C=C\N3CCCCC3)ccnc21,–,28.4 µM
C=C1C[C@H](O)[C@H](Br)C(C)(C)[C@@]12CCC(C)=C(Cl)C2,0.155 µM,7.81 µM
O=C(NC1CCCCC1)NS(=O)(=O)c1ccc(N2N=C3c4ccccc4CC3C2c2ccc(Cl)cc2)cc1 (stereo not drawn),38.5 µM,> 100 µM
c1ccc(-c2n(Cc3ccc4ccccc4n3)cc[n+]2Cc2ccc3ccccc3c2)cc1,0.366 µM,6.13 µM
O=C(Nc1cccc(C(F)(F)F)c1)Nc1cccc(C(F)(F)F)c1,0.679 µM,13.7 µM
CC(C)(C)[Si](C)(C)OC1[C@@H](O[Si](C)(C)C(C)(C)C)[C@@H](CNC(=O)NC(=O)C(F)(F)F)O[C@H]1n1cnc2c(NC(=O)Nc3ccccc3)ncnc21 (stereo partly drawn),3.98 µM,10.9 µM
CCOC(=O)n1cc(C2=C(c3ccc(OC)c(OC)c3)COC2=O)c2ccccc21,2.36 µM,> 100 µM
CC(=C(c1ccc(OCCN2CCCCC2)cc1)c1ccc(OCCN2CCCCC2)cc1)c1ccc(Cl)cc1,0.46 µM,0.893 µM
C=CC(=O)Nc1cc(Nc2nccc(-c3cn(C)c4ccccc34)n2)c(OC)cc1N(C)CCN(C)C,2.74 µM and 2.42 µM,20.5 µM and > 10 µM
CC(=O)OC1(C)N=NC2(CCCCC2)O1 (stereo not drawn),–,> 100 µM
COc1ccc2ncnc(Nc3ccc(OCc4ccccc4)cc3)c2c1,7.38 µM,> 25 µM
O=C1c2c(F)c(F)c(F)c(F)c2C(=O)N1c1ccc(F)cc1F,16.9 µM,53.3 µM
CC(C)[C@@H]1NC(=O)[C@]2(C)CSC(=N2)c2ccnc(c2)CNC(=O)C[C@@H](/C=C/CCS)OC1=O,1.41 µM,> 100 µM
OC(c1cc(C(F)(F)F)nc2c(C(F)(F)F)cccc12)C1CCCCN1 (stereo not drawn),2.81 µM,7.07 µM
C/C=C/[C@@H]1O[C@@H]2COC(=O)C2=C[C@@H]1O,16.1 µM,42.8 µM
COC(=O)/C=C/c1cc(OC(C)=O)c2c(c1)[C@@H](C(=O)OC)[C@H](c1ccc(OC(C)=O)c(OC(C)=O)c1)O2,0.34 µM,38.2 µM

# Tested on: RXF 393 renal
# Assay: NCI anticancer screen, dose series, 48 h
SMILES,GI50 [µM],TGI [µM]
CC[C@@H](c1ccc(O)c(O)c1)[C@@H](CC)c1ccc(O)c(O)c1,2.57,7.59
COc1cc(-c2nc3sccn3c2-c2ccnc(NCCNS(=O)(=O)c3ccc(F)cc3)n2)ccc1F,0.75,8.2
COc1cc(-c2nn(-c3cccc(NC(=O)c4ccccc4)c3)cc2-c2ccncc2)ccc1Cl,0.545,> 25.2
Cc1cc(Nc2ccc(C)c(Cl)c2)n2nc(C(F)(F)F)nc2n1,19.4,82.4
O=C1CSC(=S)N1/N=C/c1ccc(Cl)c([N+](=O)[O-])c1,–,> 100
C#Cc1cccc(Nc2nc3cc([N+](=O)[O-])ccc3nc2Nc2ccc(O)cc2)c1,1.73,3.58
CN(C)CC(O)c1ccc(/C=C/c2ccc(Cl)cc2)cc1 (stereo not drawn),3.89,16.2
CCCCCCCCCCSC(=N)N (tested in a mixture with another compound),2.55,7.23
CCOc1ccc(NC2=CC(=O)C(=O)c3ccccc32)cc1,–,14.6
COc1cc2c(cc1OC)-c1cc(OC)c(OC)cc1C(CN(C)C)C2 (stereo not drawn),> 10,> 10
O=C1c2ccccc2C(=O)c2c(/C=C\N3CCCCC3)ccnc21,–,23.1
C=C1C[C@H](O)[C@H](Br)C(C)(C)[C@@]12CCC(C)=C(Cl)C2,0.35,4.12
O=C(NC1CCCCC1)NS(=O)(=O)c1ccc(N2N=C3c4ccccc4CC3C2c2ccc(Cl)cc2)cc1 (stereo not drawn),23.2,87.5
